From US20080227809A1, “Arylalkylamine Vanadium (V) Salts for the Treatment and/or Prevention of Diabetes Mellitus” (GENMEDICA THERAPEUTICS SL, priority 2004, published 2008)
“Also recorded” adds a separate entry of the source.

Tests used:
[1] = tested on: isolated mouse adipocytes; assay: glucose transport (2-DG) in isolated mouse adipocytes; type: cell-based; conditions: 100 μM
Procedure: Adipose cells from FVB mice were incubated for 45 minutes in basal conditions (Basal) or in the presence of 100 nM insulin (Ins), and different concentrations of hexaquis(benzylammonium) decavanadate (B6V10) in the absence or in the presence of 1 mM semicarbazide (SCZ) and thereafter, 2-DG transport was measured over 5 min.

[2] = tested on: streptozotocin-induced diabetic rats; assay: chronic oral treatment, glycemia of streptozotocin (45 mg/kg) diabetic rats; type: in vivo, rat
Procedure: The effect of the oral administration of hexaquis(benzylammonium) decavanadate on glycemia from diabetic rats was also studied. Diabetes was induced in rats by intravenous administration of streptozotocin, and subsequently, a hexaquis(benzylammonium) decavanadate or sodium decavanadate unique dose was administered to the rats. […] After seven days of treatment, the dose was increased at 10 μmol/kg/day which was maintained for an additional ten days. […] Thus, glycemia in sodium decavanadate treated rats was approximately 450 mg/dl and glycemia of hexaquis(benzylammonium) decavanadate treated rats was approximately 250 mg/dl.
(§1) Chronic in vivo efficacy of B6V10 was evaluated in streptozotocin-induced diabetic rats and in db/db mice. Streptozotocin-induced (45 mg/kg) diabetic rats were subcutaneously treated with hexaquis(benzylammonium) decavanadate (2.5 μmol/kg) (B6V10, solid squares, FIG. 8A) or with decavanadate (2.5 μmol/kg) (V10, open circles, FIG. 8A) delivered subcutaneously by osmotic minipumps implanted in the dorsal region. Diabetic rats were also sham-operated (untreated, solid diamonds, FIG. 8A). […] These experiments were repeated using an oral administration protocol. Streptozotocin-induced (45 mg/kg) diabetic rats were orally treated with hexaquis(benzylammonium) decavanadate (5 μmol/kg from day 0 to day 7 and 10 μmol/kg/day from day 7 to day 17) (B6V10, solid squares, FIG. 8B) or received decavanadate (10 μmol/kg) (V10, open circles, FIG. 8B). Nondiabetic rats were also untreated (solid triangles, FIG. 8B).

[3] = tested on: adipocytes from treated diabetic rats; assay: glucose transport in adipocytes isolated from chronically treated diabetic rats; type: in vivo, rat; conditions: fourteen days of treatment
protein kinase B = protein kinase B phosphorylation in isolated rat adipocytes; type: cell-based; conditions: 25 μM
Procedure: (§2) Isolated fat cells were disrupted for total membrane preparation by hypo-osmotic lysis in a 20 mM HES buffer and an antiprotease and antiphosphatase cocktail as reported by Abella et al. (2003, Diabetes 52: 1004-1013). Protein concentrations were determined by the Bradford method (Bradford, 1976, Anal. Biochem. 72: 248-254) with gamma-globulin as protein concentration standard. Immunoprecipitation and immunoblot assays were performed as previously described by Abella et al. (2004, Id.) with the use of a monoclonal antiphosphotyrosine antibody for the immunoprecipitation and an anti-insulin receptor antibody for immunobloting, respectively. SDS-polyacrylamide gel electrophoresis was performed on membrane proteins following conventional procedures. Proteins were transferred to Immobilon and immunoblotting was performed as reported by Castello et al. (1994, J. Biol. Chem. 269: 5905-5912).
The mechanism of action of B6V10 was investigated in isolated rat adipocytes. Adipose cells from Wistar rats were incubated for different times in the presence of 25 μM hexaquis(benzylammonium) decavanadate (B6V10). Cells were also incubated in the presence of insulin (100 nM, 45 min), decavanadate (25 μM, 45 min) or semicarbazide (1 mM, 45 min). Subsequently, 2-deoxyglucose uptake (results shown in FIG. 7A), tyrosine phosphorylation of insulin receptor (FIG. 7B), phospho-Thr^308-protein kinase B (FIG. 7C) and phospho-Ser^473-protein kinase B (FIG. 7D) was measured. […] The phosphorylation of protein kinase B induced by B6V10 was parallel to activation of glucose transport (FIGS. 7C and 7D).
The effects of incubation with semicarbazide or phosphatidylinositol 3-kinase inhibitors were also investigated. Adipose cells were incubated with B6V10 (25 μM, 45 min) in the absence or presence of wortmannin (2 μM, 45 min), LY294002 (10 μM, 45 min) or semicarbazide (1 mM, 45 min) and thereafter 2-deoxyglucose uptake was determined during 5 min. Activation of protein kinase B phosphorylation induced by B6V10 was blocked by semicarbazide and it was not observed by decavanadate. In addition, phosphatidylinositol 3-kinase inhibitors wortmannin and LY294002 blocked B6V10-induced glucose transport (FIG. 7E).

insulin receptor = assay: tyrosine phosphorylation of insulin receptor in isolated rat adipocytes; type: cell-based; conditions: 25 μM
Procedure: as §2
The mechanism of action of B6V10 was investigated in isolated rat adipocytes. Adipose cells from Wistar rats were incubated for different times in the presence of 25 μM hexaquis(benzylammonium) decavanadate (B6V10). […] Subsequently, 2-deoxyglucose uptake (results shown in FIG. 7A), tyrosine phosphorylation of insulin receptor (FIG. 7B), phospho-Thr^308-protein kinase B (FIG. 7C) and phospho-Ser^473-protein kinase B (FIG. 7D) was measured. […]

db/db mice = assay: chronic treatment of obese diabetic db/db mice, glycemia; type: in vivo, mouse
Procedure: as §1

adipocyte lipolysis = assay: adipocyte lipolysis; type: cell-based
diabetic rats = assay: plasma lipids of diabetic rats; type: in vivo, rat
Procedure: Plasma triglycerides (Biosystems, Barcelona, Spain) and NEFAS (Wako Chemicals, Neuss, Germany) were determined with standard calorimetric methods.
The concentration of circulating lipids under these conditions was also assayed. […] Untreated diabetic (solid bars, FIG. 9B) or nondiabetic rats (open bars, FIG. 9B) were similarly assayed as controls.

[4] = in vivo

hexaquis(benzylammonium) decavanadate [Example B6V10]
stimulation of glucose transport (increase) [1]: 93%
effect on glycemia ([2]; daily oral administration, 17 days): significant correction of hyperglycemia; also recorded: significant lowering in blood glucose levels; also recorded: ameliorated hyperglycemia
time of treatment after which decrease of hyperglycemia was detected ([2]; oral 5 μmol/kg/day): two
effect on hyperglycemia ([2]; oral 5 μmol/kg/day for seven days): moderate decrease of hyperglycemia
effect of dosage increase on glycemia ([2]; oral 10 μmol/kg/day from day 7 for additional ten days): additional decrease in glycemia
glycemia ([2]; oral, after dosage increase to 10 μmol/kg/day): approximately 250 mg/dl
glucose transport in adipocytes of treated rats under basal conditions [3]: increased glucose transport under basal conditions equivalent to that seen in the presence of insulin
protein kinase B phosphorylation (protein kinase B): rapidly stimulated
time after addition at which protein kinase B phosphorylation was detectable (protein kinase B): 2.5 min
protein kinase B phosphorylation in the presence of semicarbazide (protein kinase B; semicarbazide 1 mM, 45 min): blocked
tyrosine phosphorylation of insulin receptors (insulin receptor): undetectable
effect on glycemia (db/db mice): ameliorated glycemia
adipocyte lipolysis (adipocyte lipolysis): inhibited
plasma concentration of cholesterol (diabetic rats): normalized
plasma concentration of free fatty acids (diabetic rats): normalized
plasma concentration of triglycerides (diabetic rats): normalized
hypoglycemia [4]: did not cause hypoglycemia
toxicological side effects [4]: did not show toxicological side effects
